Test results published in US20090088574A1, “CRYSTAL OF 1,2-DIHYDROPYRIDINE COMPOUND (TYPE IV)” (EISAI R&D MANAGEMENT CO., LTD., priority 2005, published 2009).

Columns and labels:
[1] = tested on: AMPA receptor; conditions: see Patent Document 1 (WO/JP01/96308); cited from earlier work
[2] = Chargeability (static potential of the powder after stirring); format: physicochemical; conditions: about 1 g stirred for 30 minutes in weighing bottle with fluoroplastic-coated stirring bar
Procedure: About 1 g of respective compounds is weighed into a weighing bottle (diameter of 35 mm). A stirring bar [fluoroplastic (tetrafluoroethylene resin) coating; 20 mm] is placed in the bottle and after the lid is in place, the powders are stirred for 30 minutes. The lid is opened at the same time that stirring is stopped; and the static potential of the powder is measured using a static potential measuring instrument.
STATIRON-DZ3 manufactured by Shishido Electrostatic, Ltd.

[3] = Physical stability in mixing operation in the presence of water or water-ethanol (1:1) mixed solution (powder X-ray diffraction before/after); format: physicochemical; conditions: mixing in agate mortar at room temperature for a few minutes with dropwise water or water-ethanol (1:1) mixed solution, dried at about 60° C. for 2 to 3 hours
Procedure: Physical Stability in Mixing Operation in the Presence of Water or Water-Ethanol (1:1) Mixed Solution
About 60 to 150 mg of crystals obtained in Reference Example A1 (Anhydrous form II) and crystals obtained in Example 1 (Crystal form IV) were placed in an agate mortar, and the mixing operation was carried out at room temperature for a few minutes while the dropwise addition of water (or water-ethanol (1:1) mixed solution) continues. Subsequently, the crystals were dried at about 60° C. for 2 to 3 hours. The powder X-ray diffraction of the crystals obtained and crystals of before mixing operation were each measured under the following measurement conditions.
D8 DISCOVER with GADDS manufactured by Bruker AXS Ltd.
Tube voltage: 40 kV Tube current: 200 mA Scanning range (2θ): 5 to 40° Collimator: 0.3 mm double slit
The powder X-ray diffraction pattern of Anhydrous form II before and after mixing operation is shown in FIG. 3, and the powder X-ray diffraction pattern of Crystal form IV is shown in FIG. 4. The mixing operation of Anhydrous form II in the presence of water was performed twice.

In the case of `N#Cc1ccccc1-c1cc(-c2ccccn2)cn(-c2ccccc2)c1=O` [compound (1), 3-(2-cyanophenyl)-5-(2-pyridyl)-1-phenyl-1,2-dihydropyridin-2-one], the “antagonistic action against AMPA receptor” value [1] is listed as “significant antagonistic action”.

In the case of `N#Cc1ccccc1-c1cc(-c2ccccn2)cn(-c2ccccc2)c1=O` [Reference Example A1, 3-(2-cyanophenyl)-5-(2-pyridyl)-1-phenyl-1,2-dihydropyridin-2-one], the “static potential of the powder (chargeability)” value [2] is reported as 70-100 V and the “change of crystal form in mixing operation (physical stability)” value [3] is reported as “change their crystal forms”.

For `N#Cc1ccccc1-c1cc(-c2ccccn2)cn(-c2ccccc2)c1=O` [Example 1, 3-(2-Cyanophenyl)-5-(2-pyridyl)-1-phenyl-1,2-dihydopyridin-2-one], the “change of crystal form in mixing operation (physical stability)” value [3] was “do not change their crystal forms”.
